In patent publication US6914046B1, “NF-κB activation inhibitors, and their pharmaceutical uses” (Centre National de la Recherche Scientifique, priority 1999, dated 2005):
“Also recorded” adds a separate entry of the source.

B1: HGH: human growth hormone (SEQ ID NO 2); produced by transfected U937-HGH line or recombinant exogenous HGH (Saizen, Serono) (protein, listed as Homo sapiens)
chain: MATGSRTSLLLAFGLLCLPWLQEGSAFPTIPLSRLFDNASLRAHRLHQLAFDTYQEFNPQTSLCFSESIPTPSNREETQQKSNLELLRISLLLIQSWLEPVQFLRSVFANSLVYGASDSNVYDLLKDLEEGIQTLMGRLEDGSPRTGQIFKQTYSKFDTNSHNDDALLKNYGLLYCFRKDMDKVETFLRIVQCRSVEGSCGF

Key:
[1] = tested on: human ovarian adenocartcinoma IGROV/ADR; experiment: Death of adriamycine resistant IGROV/ADR cells by daunomycin with recombinant HGH; assay type: cell-based
Source text: To test the possibility of using the object of the present invention on non-lymphoid tumors, the inventors have used HGH to try to invert the “adriamycine resistant” phenotype of cells isolated from a human ovarian adenocartcinoma IGROV/ADR (Bénard J et coll., 1985, Cancer Res, 45:4970-4979).
FIG. 5: Effect of growth hormone on the apoptosis of the IGROV/ADR line, induced by daunomycin; the percentage of dead cells (IP+) is indicated on the ordinate, and different columns corresponding to the different concentrations of HGH used (0, 5, 50, 500, 1000 ng/ml); the concentrations of daunomycin are indicated on the abscissa in μM.

[2] = tested on: human renal carcinoma cells (RCC) HIEG; experiment: Number of living RCC cells 48 h after daunomycin, flow cytometry; assay type: cell-based
Protocol: Erythropoietin (EPO), another molecule than HGH belonging to the same family of cytokines of class I, has been tested on human renal carcinoma cells (RCC) HIEG.
4.10^4 RCC cells have been transfected in a transitory manner with the help of an Effecten^R kit, or with 3 μg of plasmid carrying the gene encoding for EPO (RCC-EPO cells), or with 3 μg of a plasmid coding for the resistance to neomycin (RCC-Neo cells) as the negative control. After 48 hours, the RCC were combined with daunomycin at two different concentrations: 0.3 and 0.6 μM. The number of surviving cells was measured 48 hours later by flow cytometry (FIG. 6).
FIG. 6: Effect of erythropoietin on the apoptosis of the human renal carcinoma line HIEG, induced by daunomycin: for each of the experiments 1 and 2, the number of living cells is indicated on the ordinate, the white columns correspond to the RCC-Neo cells, the black columns correspond to the RCC-EPO cells; the concentrations of daunomycin are indicated on the abscissa in μM.

[3] = tested on: U937-HGH and U937-Neo cells; experiment: Propidium iodide incorporation (flow cytometry) after 48 h culture with recombinant -TNF; assay type: cell-based, human; settings: U937-HGH line versus U937 / U937-Neo control
Source text: A selection gene (neomycin resistant, Neo^R) and the gene encoding for human growth hormone (HGH) have been co-transfected in the human promyeloid leukemic line U937. By comparing the transfected line U937-HGH (which produces in a constituent fashion HGH at physiologic doses), either to the parent line U937, or to a line transfected with Neo^R alone, there are observed by different methodological approaches, that the U937-HGH line dies more under the effect of the tumor necrosis factor (-TNF). This cytokine secreted by different types of immune cells has in an anti-tumor activity (Harakana, K et al., 1984, Int J Cancer, 34:263-267) and is capable of promoting the activation of NF-κB (Baeuerle P A, Henkel T, 1994, Ann Rev Immunol, 12:141-179).
The U937-HGH cells and the U937-Neo control cells have been cultured for 48 hours in the presence of increasing concentrations of recombinant -TNF. As a result of this culture, the washed cells have been incubated in the presence of propidium iodide which is incorporated in the DNA of the dead cells. These cells are analyzed by flowing cytometry. […]

NF-κB [4] = experiment: Gel delay analysis of nuclear extracts for NF-κB after -TNF stimulation; assay type: cell-based, human; settings: U937-HGH cells versus U937 control cells, -TNF or -TNF and cycloheximide
Source text: On this gel were deposited nuclear extracts from the U937-HGH and U937 cells (the mother line having served for obtaining the U937-HGH lines) subjected to different inductors including -TNF or -TNF and cycloheximide (inhibitor of protein synthesis).
FIG. 2: The effect of growth hormone on the translocation of NF-κB; column 1 corresponds to the control cells U937, column 2 corresponds to the U937 cells treated with -TNF+cycloheximide, column 3 corresponds to the U937 cells treated with -TNF, column 4 corresponds to the U937 cells treated with -TNF+a mutant NF-κB probe, column 5 corresponds to the U937 cells treated with -TNF +a homologous NF-κB probe, column 6 corresponds to the control cells U937-HGH, column 7 corresponds to the U937-HGH cells treated with -TNF+cycloheximide, column 8 corresponds to the U937-HGH cells treated with -TNF; the presence of NF-κB is indicated by an arrow.

NF-κB [5] = experiment: NF-κB-driven CAT reporter ELISA after -TNF stimulation; assay type: cell-based, human; settings: U937-HGH versus U937-Neo cells
Protocol: The cells are transfected by electroporation then incubated with -TNF. At the end of culturing, the cells are lysated and the activated CAT is measured by an commercial ELISA (Boehringer-Mannheim), according to the directions of the supplier.
FIG. 3: Effect of growth hormone on the reporter activity CAT; the percentage of variation of CAT activity is indicated on the abscissa; the two left columns show the two experiments carried out on U937-Neo cells, and the two right columns represent the two independent experiments carried out on U937-HGH cells.

[6] = tested on: U937-HGH and U937-Neo cells; experiment: Death mediated by daunomycin in U937-HGH versus control line (IP+ cells); assay type: cell-based, human
Source text: FIG. 4: Effect of growth hormone on apoptosis induced by daunomycin; the percentage of the dead cells (IP+) is indicated on the ordinate, the white columns corresponding to the cells of the strain U937-Neo, the black columns corresponding to the cells of the strain U937-HGH; the indicated percentages show the increase of mortality of the cells; the concentrations of daunomycin are indicated on the abscissa in μM.

human monocytes = experiment: Death of human monocytes after engagement of APO1/CD95/Fas; assay type: cell-based
NF-κB [7] = settings: human monocytes, exogenous recombinant HGH; cited from earlier work

Molecule	toxic effect of daunomycin on IGROV/ADR cells ([1]; HGH 0 ng/ml)	numbers of living cells ([2]; Experiment 1, RCC-EPO cells, daunomycin 0.3 μM)	numbers of living cells ([2]; Experiment 1, RCC-EPO cells, daunomycin 0.6 μM)	numbers of living cells ([2]; Experiment 1, RCC-Neo cells, daunomycin 0.3 μM)	numbers of living cells ([2]; Experiment 1, RCC-Neo cells, daunomycin 0.6 μM)	numbers of living cells ([2]; Experiment 2, RCC-EPO cells, daunomycin 0.3 μM)	numbers of living cells ([2]; Experiment 2, RCC-EPO cells, daunomycin 0.6 μM)	numbers of living cells ([2]; Experiment 2, RCC-Neo cells, daunomycin 0.3 μM)	numbers of living cells ([2]; Experiment 2, RCC-Neo cells, daunomycin 0.6 μM)	effect of HGH on death mediated by -TNF [3]	presence of NF-κB in the nuclei (NF-κB [4])	CAT activity, reflected by the presence of NF-κB (NF-κB [5])	sensitivity to death mediated by daunomycin [6]	dose of HGH giving maximum effect ([1]; lowest dose of HGH used, sensitisation to daunomycin) [ng/mL]	effect of recombinant HGH on sensitivity of IGROV/ADR cells to daunomycin ([1]; recombinant HGH (Saizen) added to culture)	death mediated through the molecule Fas (human monocytes)	synthesis of proto-oncogene Bc1-2 (human monocytes)	activation of NF-κB after stimulation by LPS (NF-κB [7])
COc1cccc2c1C(=O)c1c(O)c3c(c(O)c1C2=O)C[C@@](O)(C(C)=O)C[C@@H]3O[C@H]1C[C@H](N)[C@H](O)[C@H](C)O1 [daunomycin]	insensitive to the toxic effect	3487	8551	11382	10179	2693	4739	8891	7001	–	–	–	–	–	–	–	–	–
B1	–	–	–	–	–	–	–	–	–	accelerates the death of these cells; also recorded: increases their susceptibility to the induction of death	decreased relative to the control cells	decreased in the U937-HGH cells relative to the control cells	more sensitive than the control line	5	renders these cells sensitive to daunomycin	decreases the death	increasing the synthesis	inhibits the activation of NF-κB
